What was measured:
RIN-m cells = assay: MTT viability assay, peptide alone or mixed with hIAPP; assay type: cell-based; settings: for rescue / protection of cells from hIAPP toxicity (words): hIAPP mixed with peptide 1:1, MTT assay; for toxicity of peptide to cells: peptide alone, MTT assay, pancreatic (RIN-m) cells
Description: Cytoprotection can likewise be measured by a number of assays known to the art. One such assay is the MTT assay, which is a colorimetric assay for assessing cell metabolic activity. NAD(P)H-dependent cellular oxidoreductase enzymes in the cytosolic compartment of a cell reduces the tetrazolium dye MTT 3-(4,5-dimethylthiazol-2-yl)-2,5-diphenyltetrazolium bromide to an insoluble form, formazan, which has a purple color. The reduction of MTT (and other tetrazolium dyes) depends on the cellular metabolic activity, so a loss of color in the course of performing an MTT assay indicates low metabolic activity, and is thus an indicator of cell damage and death.
To test cell viability, a MTT colorimetric assay measuring the conversion of yellow tetrazolium salt into purple formazan crystal catalyzed by a mitochondrial reductase was used. Cell viability studies were performed using RIN-m cells (ATCC, CRL-2057). An equal number of RIN-m cells were plated in triplicate and incubated overnight in 96-well plates. The next day, fresh RPMI-1640 with phenol red supplemented with 10% FBS was added to cells. Hexafluoroisopropanol (HFIP) was removed from each individual human and animal IAPP using a centrivap concentrator (LabOnco). All IAPP peptide samples were re-suspended in RPMI-1640 with 10% FBS. To ensure even re-suspension, each resulting IAPP-containing vial was scraped with a pipette tip six times and vortexed (Vortex Genie Mixer) for 15 seconds. The whole process, from drying each IAPP peptide to adding each IAPP peptide to the cells was uniform to ensure that each sample was incubated for an equal amount of time with each IAPP peptide. IAPP peptides were added to cells and incubated for 46 hours at 37° C. Post-incubation, the media in each well was replaced by fresh DMEM/F-12 without phenol red. MTT (3-(4,5-dimethyl-2-thiazolyl)-2,5-diphenyl-tetrazolium bromide) was added into each well and incubated at 37° C. for 2 hours. Formazan crystals, formed on the bottom of the wells, were re-suspended in solubilization buffer (20% SDS and 50% dimethylformamide). The absorbance in each well was taken at 570 nm using a Multiskan FC Microplate Photometer (Thermos Fisher Scientific). Media were obtained from ATCC. All incubations took place in a water jacketed incubator in 5% carbon dioxide at 37° C. (Shell Lab).
The MTT viability assay was used to measure cell viability of RIN-m cells upon addition of hIAPP alone, the addition of each animal IAPP peptide alone, and hIAPP mixed with each animal IAPP peptide (results shown in FIG. 5). RIN-m cells alone were used as a control and set to 100% cell viability. […] Addition of raccoon IAPP to hIAPP increased the cell viability from 55% to an average of 72% (p=0.005705). Addition of chicken IAPP variant to hIAPP increased cell viability to an average of 76% (p=0.013556).

[1] = AFM of peptide alone (self-aggregation / fibril formation); assay type: physicochemical; settings: for aggregation / fibril formation of peptide alone, AFM: incubated 40 minutes at 37° C. with shaking
Experimental: (§1) Samples labeled with hIAPP contained 40 μM hIAPP. The sample with pramlintide and hIAPP contained a 2:1 molar mixture (80 μM Pramlintide mixed with 40 μM hIAPP). The samples with raccoon IAPP and Pramlintide alone contained 40 μM of the indicated peptides. Each sample was incubated for 40 minutes at 37° C. with shaking; conditions known to promote hIAPP amyloid formation. All scans show raw data with no flattening and are […].
(§2) Samples of hIAPP with or without animal IAPP were prepared as described in Example 1 and were then incubated with shaking at 37° C. for 40 minutes. After this incubation, 17 μL of each sample was deposited onto freshly cleaved mica. Samples were incubated for 5 minutes at room temperature before washing with 200 μL sterile water. After drying, the samples were scanned using an MFP-3D atomic force microscope (Asylum Research) set on A/C mode and a 240 m silicon cantilever (Olympus).
(§3) Many of the animal IAPP variants are known to likewise form fibrils and yield amyloid-plaques when scanned via AFM. […] This is in spite of the fact that all of these IAPP peptides (except polar bear IAPP) are known to aggregate and form fibrils themselves under these or similar conditions

human IAPP (hIAPP) [2] = molecular target: T1, human IAPP (hIAPP) (Homo sapiens, UniProt P10997); assay: Thioflavin T binding assay of hIAPP aggregation when mixed with IAPP peptides; assay type: biochemical; settings: for inhibition of hIAPP aggregation, thioflavin T binding: hIAPP mixed with peptide, incubated at 37° C. with shaking; for inhibition of hIAPP aggregation (summary statement): peptide mixed with hIAPP, no single assay (thioflavin T and AFM)
T1 construct: This 37 amino acid polypeptide is co-secreted from pancreatic β-islet cells with insulin
T1 sequence (P10997 34-70 limits assumed): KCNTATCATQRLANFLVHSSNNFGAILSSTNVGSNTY
Description: Any of a number of assays known to the art can be used to evaluate the ability of IAPP peptides to inhibit hIAPP aggregation and/or protect cells from hIAPP toxicity. Thioflavin T (ThT) binding is one such technique for identifying amyloid formation in real time. Human IAPP is known to bind thioflavin T during aggregation and amyloid formation, and upon binding to amyloid fibrils ThT will give a strong fluorescence signal at approximately 482 nm when excited at 450 nm. ThT fluorescence correlates linearly with amyloid concentration in a sample and therefore can be used to determine the amount of aggregation in a sample. This technique can therefore be used for identifying substances with amyloid-inhibiting potential when such substances are mixed with human IAPP under conditions known to result in the formation of aggregates by hIAPP. Determining the extent of aggregation can also be determined using other techniques, such as Atomic Force Microscopy (AFM), which can provide information about particle dimensions, shape, and substructure with nanometer resolution. In the foregoing assays and others that can be used by one of skill in the art, significant inhibition can be determined using a t-test by measuring the difference between hIAPP and hIAPP combined with an IAPP peptide.
To identify IAPP peptides having inhibitory potential against hIAPP aggregation, the peptides shown in FIG. 1 from a number of species (cow, degu, guinea pig, horse, pig, rat, and sheep[…]) were mixed with hIAPP at a 2:1 molar ratio of animal peptide to hIAPP and incubated under conditions known to promote hIAPP aggregation and fibril formation. IAPP alone, or hIAPP mixed with an animal IAPP, was pipetted into a glass tube and the HFIP was removed under speed-vacuum. The resulting peptide sample was dissolved in 20 mM Tris buffer pH 7.4.
37 μM human IAPP was mixed with 75 μM of each indicated animal IAPP. Aggregation was initiated by incubating samples at 37° C. with shaking at 200 rpm for 40 minutes. At indicated time points, a 17 μL aliquot of each sample was mixed with 663 μL of 50.0 μM thioflavin T in 20 mM Tris buffer (pH 7.4). Thioflavin T fluorescence emission was then recorded at 488 nm using a Hitachi F-7000 fluorescence spectrophotometer.
After 40 minutes, these samples were monitored for their ability to bind thioflavin T (see FIG. 2) and their ability to form fibrils as identified with atomic force microscopy.
Human IAPP (37 μM) was mixed with each of the indicated Weddell seal variants (at 75 μM) and incubated for 30 minutes at 37° C. with shaking at 200 rpm. The Weddell seal IAPP peptides were likewise subjected to atomic force microscopy as described in Example 2.
Human IAPP was mixed with each of the indicated raccoon variants and incubated at 37° C. with shaking.
Human IAPP was mixed with each of the indicated chicken variants and incubated at 37° C. with shaking. […] However, it was able to protect cells in MTT assays, so it is believed to inhibit formation of toxic oligomers while having a lesser effect on inhibiting the formation of fibers (which are less toxic and less able to bind ThT).
Human IAPP was mixed with each of the indicated chicken variants and incubated at 37° C. with shaking.

human IAPP (hIAPP) [3] = molecular target: T1, human IAPP (hIAPP); assay: Atomic force microscopy (AFM) of hIAPP fibril formation when mixed with IAPP peptides; assay type: biochemical; settings: for inhibition of hIAPP fibril formation, AFM: 37 μM hIAPP and 75 μM peptide, 37° C. with shaking for 40 minutes
Experimental: as §1
Each sample contained 37 μM hIAPP and 75 μM of the indicated peptide. Samples were incubated at 37° C. with shaking for 40 minutes. All scans show raw data with no flattening and are […].
Each sample contained 37 μM hIAPP mixed with 37 μM of the indicated peptide. Samples were incubated at 37° C. with shaking for 30 minutes before depositing each sample onto freshly cleaved mica.
as §2, §3

Molecule | rescue / protection of cells from hIAPP toxicity (words) (RIN-m cells) | toxicity of peptide to cells (RIN-m cells) | aggregation propensity relative to comparator ([1]; comparison of pramlintide with the IAPP peptides) | aggregation / fibril formation of peptide alone, AFM [1] | cell viability, peptide alone (RIN-m cells; 12.8 μM, RIN-m cells, 46 hours, cells alone set to 100%) | inhibition of hIAPP aggregation, thioflavin T binding (human IAPP (hIAPP) [2]) | inhibition of hIAPP fibril formation, AFM (human IAPP (hIAPP) [3]) | inhibition of hIAPP aggregation (summary statement) (human IAPP (hIAPP) [2]) | inhibition of hIAPP fiber formation (human IAPP (hIAPP) [3]; FIG. 22: 37 μM hIAPP mixed with 37 μM peptide, 37° C. with shaking for 30 minutes) | rescue / protection of cells from hIAPP toxicity (words) (RIN-m cells; listed as Rac-L26Y)
CC[C@H](C)[C@H](NC(=O)[C@@H]1CCCN1C(=O)CNC(=O)[C@H](Cc1ccccc1)NC(=O)[C@H](CC(N)=O)NC(=O)[C@H](CC(N)=O)NC(=O)[C@H](CO)NC(=O)[C@H](CO)NC(=O)[C@H](Cc1c[nH]cn1)NC(=O)[C@@H](NC(=O)[C@H](CC(C)C)NC(=O)[C@H](Cc1ccccc1)NC(=O)[C@H](CC(N)=O)NC(=O)[C@H](C)NC(=O)[C@H](CC(C)C)NC(=O)[C@H](CCCNC(=N)N)NC(=O)[C@H](CCC(N)=O)NC(=O)[C@@H](NC(=O)[C@H](C)NC(=O)[C@@H]1CSSC[C@H](NC(=O)[C@@H](N)CCCCN)C(=O)N[C@@H](CC(N)=O)C(=O)N[C@@H]([C@@H](C)O)C(=O)N[C@@H](C)C(=O)N[C@@H]([C@@H](C)O)C(=O)N1)[C@@H](C)O)C(C)C)C(=O)N[C@@H](CC(C)C)C(=O)N1CCC[C@H]1C(=O)N1CCC[C@H]1C(=O)N[C@H](C(=O)N[C@@H](CC(N)=O)C(=O)N[C@H](C(=O)NCC(=O)N[C@@H](CO)C(=O)N[C@@H](CC(N)=O)C(=O)N[C@H](C(=O)N[C@@H](Cc1ccc(O)cc1)C(N)=O)[C@@H](C)O)C(C)C)[C@@H](C)O [pramlintide, reference compound] | no ability to protect cells from the toxic effects of hIAPP | toxic to the cells | more amyloidogenic than the present IAPP peptides | formed amyloid fibers | – | – | – | – | – | –
CC[C@H](C)[C@H](NC(=O)[C@H](C)NC(=O)CNC(=O)[C@H](Cc1ccccc1)NC(=O)[C@H](CC(N)=O)NC(=O)[C@H](CC(N)=O)NC(=O)[C@H](CO)NC(=O)[C@H](CO)NC(=O)[C@H](Cc1c[nH]cn1)NC(=O)[C@@H](NC(=O)[C@H](CC(C)C)NC(=O)[C@H](Cc1ccccc1)NC(=O)[C@H](CC(N)=O)NC(=O)[C@H](C)NC(=O)[C@H](CC(C)C)NC(=O)[C@H](CCCNC(=N)N)NC(=O)[C@H](CCC(N)=O)NC(=O)[C@@H](NC(=O)[C@H](C)NC(=O)[C@@H]1CSSC[C@H](NC(=O)[C@@H](N)CCCCN)C(=O)N[C@@H](CC(N)=O)C(=O)N[C@@H]([C@@H](C)O)C(=O)N[C@@H](C)C(=O)N[C@@H]([C@@H](C)O)C(=O)N1)[C@@H](C)O)C(C)C)C(=O)N[C@@H](CC(C)C)C(=O)N[C@@H](CO)C(=O)N[C@@H](CO)C(=O)N[C@H](C(=O)N[C@@H](CC(N)=O)C(=O)N[C@H](C(=O)NCC(=O)N[C@@H](CO)C(=O)N[C@@H](CC(N)=O)C(=O)N[C@H](C(=O)N[C@@H](Cc1ccc(O)cc1)C(N)=O)[C@@H](C)O)C(C)C)[C@@H](C)O [hIAPP, reference compound] | – | – | – | forms high-density fibrils | 55+/−5% | – | – | – | – | –
KCNTATCVTQRLADFLVRSSSNIGAIYSP (Gallus gallus truncation) [C1-29] | rescued cells from hIAPP-induced cytotoxicity | – | – | – | – | inhibited hIAPP aggregation | amyloid fibers were formed and did | – | – | –
rat IAPP: naturally occurring IAPP peptide of rat origin (FIG. 1) | not capable of protecting RIN-m cells from the toxic effects of hIAPP | improved effect on cell viability | – | – | – | – | either had no effect on hIAPP fibril formation or appeared to promote fibrils with hIAPP | failed to inhibit the aggregation of human IAPP | – | –
KCNTATCATQRLANFLVRSGNLFGAILSPTNVGSNTY (listed as Ursus maritimus) [polar bear IAPP] | not capable of protecting RIN-m cells from the toxic effects of hIAPP | – | – | – | – | – | significant ability to prevent fiber formation | able to inhibit such aggregation | – | –
KCNTATCVTQRLANFLLRSSNNLGAIYSPTNVGSNTY (Procyon lotor mutation) [Rac_L26Y] | improved cell viability in the presence of hIAPP | minimal inherent toxicity | – | – | – | inhibited hIAPP aggregation | – | – | stood out for its ability to inhibit hIAPP fiber formation | rescue cells from hIAPP toxicity
